One assay deals with T1, TYK2 (Homo sapiens, UniProt P29597).
T1 construct: purchased Carna Biosciences
Nature of the assay: JAK biochemical microfluidic assay (Caliper EZ Reader), TYK2. Conditions: 1 mM ATP; head prints (2.5 nM). The procedure:
(§1) JAK activity was determined in the reaction buffer 50 mM HEPES, 0.01% Brij35, 10 mM MgCl2, 2 mM DTT by a microfluidic assay. The phosphorylation of a FAM labeled peptide substrate was monitored in the Caliper EZ Reader II (Perkin Elmer). The assay condition for each batch of enzyme (Carna Biosciences) was optimized to obtain 10% conversion rate of peptide substrate.
(§2) The test compounds were dissolved in DMSO to a stock concentration of 10 mM. Three-fold serially diluted compounds with top concentration of 5 μM were pre-incubated with JAK1, JAK2 or TYK2 for 10 min at ambient temperature. The final DMSO concentration of assay mixture was 1%. […] The reaction was stopped by adding 50 mM EDTA.
(§3) The percent inhibition was calculated by the following formula. % Inhibition=(Conversionmax−Conversionsample)/(Conversionmax−Conversionmin)*100 Conversionmax means the conversion rate in the positive well without addition of compound • […] means the conversion rate in the well without addition of enzyme • Conversionsample means the conversion rate of test compounds
(§4) The dose-response (percent inhibition) curve was plotted and IC50 values were determined by GraphPad software.

The target in another assay is T2, JAK2 (Homo sapiens, UniProt O60674).
T2 construct: purchased Carna Biosciences
Nature of the assay: JAK biochemical microfluidic assay (Caliper EZ Reader), JAK2. Conditions: 1 mM ATP; head prints (0.25 nM). How it is done: as §1, §2, §3, §4

The target in another assay is T3, JAK1 (Homo sapiens, UniProt P23458).
T3 construct: purchased Carna Biosciences
The assay can be described thus: JAK biochemical microfluidic assay (Caliper EZ Reader), JAK1. Conditions: 1 mM ATP; head prints (5 nM). The procedure: as §1, §2, §3, §4

The test system of a further assay is BaF3-TEL-JAK2. The assay can be described thus: Anti-proliferative assay, BaF3-TEL-JAK2 cells. The class given is cell-based. The following applies: 72 h, Cell-Titer Glo. The procedure:
(§5) Dimerization domain of Tel protein fused with JAK kinase domain was permanently transduced into BaF3 cells, whose proliferation is dependent on JAK activity in the absence of IL-3 induction. These engineered BaF3-Tel-JAK cells were used to monitor JAK inhibitory activities of the compounds in the cellular.
(§6) BaF3-Tel-JAK cells were cultured in RPMI-1640 (Corning) containing 10% fetal bovine serum. Cells were seeded at 2000/well of white flat bottom 96-well plates. The well containing medium only was used as background control. After 24h growth, cells were treated with compounds. The test compounds were dissolved in DMSO to a stock concentration of 10 mM. 3-fold serially diluted compounds for 9 concentrations with top concentration of 10 μM was added into the each well. The final DMSO concentration was 0.2%. The cells continued to grow at 37° C. in 5% CO2 for 72 h after compound treatment. The viability was measured by cellular ATP determination using the Cell-Titer Glo luciferase reagent (Promega). The Luminescence value was recorded by a multi-label reader Envision (PerkinElmer). Values were transformed to percent inhibition using the following formula. % Inhibition=(Readoutmax−Readoutsample)/(Readoutmax−Readoutmin)*100
(§7) The well without compound but with equivalent DMSO was defined as Readout max
(§8) The well with only medium and equivalent DMSO was defined as Readout min
(§9) The dose-response (percent inhibition) curve was plotted and GI50 values (the concentration that causes 50% growth inhibition) were determined by GraphPad software.

The next assay deals with BaF3-TEL-JAK1. The assay can be described thus: Anti-proliferative assay, BaF3-TEL-JAK1 cells. The class given is cell-based. The following applies: 72 h, Cell-Titer Glo. How it is done: as §5, §6, §7, §8, §9

As usually defined, the IC50 is the point on the concentration scale where inhibition reaches its midpoint. The low end stands for greater potency in that assay, the high end for weaker potency in that assay. As usually defined, the GI50 is the concentration giving 50% growth inhibition.

T1 sequence (P29597 whole entry): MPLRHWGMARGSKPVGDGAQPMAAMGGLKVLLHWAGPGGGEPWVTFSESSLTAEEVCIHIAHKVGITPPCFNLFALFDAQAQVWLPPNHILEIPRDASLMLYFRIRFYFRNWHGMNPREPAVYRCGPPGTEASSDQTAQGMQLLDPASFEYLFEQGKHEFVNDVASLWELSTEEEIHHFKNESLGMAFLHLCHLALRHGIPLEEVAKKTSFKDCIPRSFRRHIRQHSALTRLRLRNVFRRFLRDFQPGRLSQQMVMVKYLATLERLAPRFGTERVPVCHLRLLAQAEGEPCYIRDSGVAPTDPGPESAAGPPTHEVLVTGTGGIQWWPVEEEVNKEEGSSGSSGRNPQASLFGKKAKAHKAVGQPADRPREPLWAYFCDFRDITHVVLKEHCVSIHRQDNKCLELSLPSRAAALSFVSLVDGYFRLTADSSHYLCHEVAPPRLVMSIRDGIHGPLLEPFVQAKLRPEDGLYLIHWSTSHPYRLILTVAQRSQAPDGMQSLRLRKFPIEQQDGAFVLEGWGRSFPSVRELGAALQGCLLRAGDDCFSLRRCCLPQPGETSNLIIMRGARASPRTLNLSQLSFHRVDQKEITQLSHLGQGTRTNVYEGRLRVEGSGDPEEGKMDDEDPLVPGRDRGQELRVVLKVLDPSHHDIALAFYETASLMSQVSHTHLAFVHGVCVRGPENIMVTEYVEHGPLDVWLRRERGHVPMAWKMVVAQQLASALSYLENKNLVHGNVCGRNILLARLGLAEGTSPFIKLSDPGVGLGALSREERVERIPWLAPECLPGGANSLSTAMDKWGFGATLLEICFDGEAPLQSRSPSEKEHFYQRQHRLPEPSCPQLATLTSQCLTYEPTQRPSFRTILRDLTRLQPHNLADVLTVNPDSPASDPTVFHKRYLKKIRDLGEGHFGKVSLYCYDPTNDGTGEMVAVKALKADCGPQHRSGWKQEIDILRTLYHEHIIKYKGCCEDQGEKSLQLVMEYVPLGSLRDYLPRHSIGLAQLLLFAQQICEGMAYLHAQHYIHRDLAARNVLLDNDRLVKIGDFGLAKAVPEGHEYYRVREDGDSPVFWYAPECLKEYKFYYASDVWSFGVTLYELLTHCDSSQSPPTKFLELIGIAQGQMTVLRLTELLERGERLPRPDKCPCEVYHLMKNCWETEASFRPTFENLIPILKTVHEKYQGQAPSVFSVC
T2 sequence (O60674 whole entry): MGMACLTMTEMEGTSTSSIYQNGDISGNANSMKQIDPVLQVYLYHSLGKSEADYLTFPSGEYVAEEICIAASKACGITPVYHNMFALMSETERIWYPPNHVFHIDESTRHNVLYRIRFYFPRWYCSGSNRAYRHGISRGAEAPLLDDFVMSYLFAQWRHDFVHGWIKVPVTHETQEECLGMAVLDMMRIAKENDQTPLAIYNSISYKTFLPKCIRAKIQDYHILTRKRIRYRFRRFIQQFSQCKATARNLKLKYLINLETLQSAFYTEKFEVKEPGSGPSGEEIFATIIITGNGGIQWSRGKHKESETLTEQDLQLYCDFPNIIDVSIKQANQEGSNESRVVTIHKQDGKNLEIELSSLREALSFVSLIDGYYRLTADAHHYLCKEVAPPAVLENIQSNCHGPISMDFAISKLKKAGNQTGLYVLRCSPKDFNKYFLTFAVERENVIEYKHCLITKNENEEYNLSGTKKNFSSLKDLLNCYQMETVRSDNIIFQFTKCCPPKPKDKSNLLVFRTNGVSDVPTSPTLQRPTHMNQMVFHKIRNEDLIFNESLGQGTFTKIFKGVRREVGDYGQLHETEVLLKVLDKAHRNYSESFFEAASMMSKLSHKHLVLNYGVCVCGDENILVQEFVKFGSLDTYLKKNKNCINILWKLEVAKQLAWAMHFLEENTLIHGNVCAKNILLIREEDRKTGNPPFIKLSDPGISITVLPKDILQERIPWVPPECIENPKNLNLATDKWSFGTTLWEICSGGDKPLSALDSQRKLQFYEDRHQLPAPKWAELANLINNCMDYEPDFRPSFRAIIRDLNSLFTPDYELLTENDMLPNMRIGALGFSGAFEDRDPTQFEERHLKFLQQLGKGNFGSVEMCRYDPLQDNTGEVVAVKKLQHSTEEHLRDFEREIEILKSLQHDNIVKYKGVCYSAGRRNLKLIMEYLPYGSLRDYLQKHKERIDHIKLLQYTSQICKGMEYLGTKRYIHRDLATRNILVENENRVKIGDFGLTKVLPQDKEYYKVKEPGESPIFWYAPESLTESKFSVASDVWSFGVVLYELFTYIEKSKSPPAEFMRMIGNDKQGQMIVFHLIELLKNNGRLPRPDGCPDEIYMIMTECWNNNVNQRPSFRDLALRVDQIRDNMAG
T3 sequence (P23458 whole entry): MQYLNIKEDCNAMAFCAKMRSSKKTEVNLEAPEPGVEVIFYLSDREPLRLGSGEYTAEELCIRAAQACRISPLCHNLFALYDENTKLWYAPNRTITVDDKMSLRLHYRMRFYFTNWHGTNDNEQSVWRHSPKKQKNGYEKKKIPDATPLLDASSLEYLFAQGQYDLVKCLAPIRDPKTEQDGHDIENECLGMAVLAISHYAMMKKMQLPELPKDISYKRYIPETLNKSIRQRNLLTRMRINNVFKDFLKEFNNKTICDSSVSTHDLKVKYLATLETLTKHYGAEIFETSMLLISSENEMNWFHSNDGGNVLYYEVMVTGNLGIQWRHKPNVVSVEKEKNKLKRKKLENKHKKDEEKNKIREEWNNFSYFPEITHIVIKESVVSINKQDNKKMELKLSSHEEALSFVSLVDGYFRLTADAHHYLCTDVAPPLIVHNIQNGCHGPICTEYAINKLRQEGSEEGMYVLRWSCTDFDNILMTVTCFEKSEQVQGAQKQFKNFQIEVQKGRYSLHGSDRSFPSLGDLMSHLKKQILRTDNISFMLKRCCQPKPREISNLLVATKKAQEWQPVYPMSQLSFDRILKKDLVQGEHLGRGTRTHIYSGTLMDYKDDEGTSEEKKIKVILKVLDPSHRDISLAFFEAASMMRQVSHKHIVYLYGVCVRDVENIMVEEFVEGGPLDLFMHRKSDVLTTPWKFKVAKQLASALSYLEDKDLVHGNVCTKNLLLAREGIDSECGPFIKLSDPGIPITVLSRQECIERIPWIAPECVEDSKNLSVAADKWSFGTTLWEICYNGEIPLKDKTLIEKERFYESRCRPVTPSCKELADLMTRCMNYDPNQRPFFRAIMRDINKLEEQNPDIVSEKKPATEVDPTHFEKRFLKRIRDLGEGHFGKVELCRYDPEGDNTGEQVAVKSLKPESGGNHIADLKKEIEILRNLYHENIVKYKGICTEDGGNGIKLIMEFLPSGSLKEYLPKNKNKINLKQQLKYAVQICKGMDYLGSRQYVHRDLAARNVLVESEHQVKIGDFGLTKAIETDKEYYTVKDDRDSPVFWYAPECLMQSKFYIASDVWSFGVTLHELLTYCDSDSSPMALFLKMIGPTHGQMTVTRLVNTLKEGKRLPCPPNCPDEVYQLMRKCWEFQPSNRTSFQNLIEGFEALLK

Turning to `O=S(=O)(NC12CC(n3cnc4cnc5[nH]ccc5c43)(C1)C2)C1CC1` [Example 7, N-(3-(imidazo[4,5-d]pyrrolo[2,3-b]pyridin-1(6H)-yl)bicyclo[1.1.1]pentan-1-yl)cyclopropanesulfonamide], the IC50 on TYK2 worked out at 574 nM; at JAK2, 470 nM; against JAK1, 45.3 nM.
The matching figures for `CC(C)(C)OC(=O)NC12CC(n3cnc4cnc5[nH]ccc5c43)(C1)C2` [Example 1i, Tert-butyl (3-(imidazo[4,5-d]pyrrolo[2,3-b]pyridin-1(6H)-yl)bicyclo[1.1.1]pentan-1-yl)carbamate]: 2880 nM, 472 nM and 43 nM.
For `O=C(NCC(F)(F)F)NC12CC(n3cnc4cnc5[nH]ccc5c43)(C1)C2` [Example 41, 1-(3-(Imidazo[4,5-d]pyrrolo[2,3-b]pyridin-1(6H)-yl)bicyclo[1.1.1]pentan-1-yl)-3-(2,2,2-trifluoroethyl)urea], the half-maximal inhibitory concentration (IC50) was determined as 94.6 nM against JAK2 and 8.5 nM on JAK1. Besides, the GI50 came to 1000 nM in the assay on BaF3-TEL-JAK2 and 99.6 nM with BaF3-TEL-JAK1.
As to `N#CC1CCN(S(=O)(=O)NC23CC(n4cnc5cnc6[nH]ccc6c54)(C2)C3)C1` (centres unmarked) [Example 20, 3-Cyano-N-(3-(imidazo[4,5-d]pyrrolo[2,3-b]pyridin-1(6H)-yl)bicyclo[1.1.1]pentan-1-yl)pyrrolidine-1-sulfonamide], the IC50 is 200 nM at TYK2, 334 nM against JAK2 and 8.3 nM on JAK1.
`CCCS(=O)(=O)N[C@H]1C[C@@H](n2cnc3cnc4[nH]ccc4c32)C1` [Example 2, N-(Cis-3-(imidazo[4,5-d]pyrrolo[2,3-b]pyridin-1(6H)-yl)cyclobutyl)propane-1-sulfonamide]: the IC50 at TYK2 was 2850 nM; against JAK2 it was 1090 nM; at JAK1, 69.2 nM. For the same compound, the GI50 in the assay on BaF3-TEL-JAK2 was 2300 nM; in the assay with BaF3-TEL-JAK1, 352 nM.
As for `CCCS(=O)(=O)N[C@H]1C[C@H](n2cnc3cnc4[nH]ccc4c32)C1` [Example 3, N-(trans-3-(imidazo[4,5-d]pyrrolo[2,3-b]pyridin-1(6H)-yl)cyclobutyl)propane-1-sulfonamide], the IC50 stood at 3660 nM against TYK2, 1540 nM on JAK2 and 190 nM against JAK1. Further, the GI50 with BaF3-TEL-JAK2 was found to be 2540 nM; with BaF3-TEL-JAK1 it was 1090 nM.
Turning to `CCCCS(=O)(=O)NC12CC(n3cnc4cnc5[nH]ccc5c43)(C1)C2` [Example 31, N-(3-(imidazo[4,5-d]pyrrolo[2,3-b]pyridin-1(6H)-yl)bicyclo[1.1.1]pentan-1-yl)butane-1-sulfonamide], the IC50 at TYK2 turned out to be 170 nM; at JAK2, 129 nM; against JAK1, 4.8 nM. Further, the GI50 with BaF3-TEL-JAK2 is 198 nM; with BaF3-TEL-JAK1 it was 27.8 nM.
Turning to `CCCS(=O)(=O)NC12CC(n3c(C)nc4cnc5[nH]ccc5c43)(C1)C2` [Example 48, N-(3-(2-methylimidazo[4,5-d]pyrrolo[2,3-b]pyridin-1(6H)-yl)bicyclo[1.1.1]pentan-1-yl)propane-1-sulfonamide], the IC50 against JAK2 was 244 nM; at JAK1, 13 nM.
In the case of `CC(C)CS(=O)(=O)NC12CC(n3cnc4cnc5[nH]ccc5c43)(C1)C2` [Example 5, N-(3-(imidazo[4,5-d]pyrrolo[2,3-b]pyridin-1(6H)-yl)bicyclo[1.1.1]pentan-1-yl)-2-methylpropane-1-sulfonamide], the IC50 against TYK2 was 111 nM; on JAK2, 145 nM; against JAK1 it was 5.53 nM. Besides, the GI50 with BaF3-TEL-JAK2 is 380 nM; in the assay on BaF3-TEL-JAK1, 10 nM.
The matching figures for `O=S(=O)(NC12CC(n3cnc4cnc5[nH]ccc5c43)(C1)C2)c1ccc(Cl)cc1` [Example 28, 4-Chloro-N-(3-(imidazo[4,5-d]pyrrolo[2,3-b]pyridin-1(6H)-yl)bicyclo[1.1.1]pentan-1-yl)benzenesulfonamide]: 413 nM, 259 nM, 6.7 nM, 286 nM and 51 nM.
For `CCCNC(=O)NC12CC(n3cnc4cnc5[nH]ccc5c43)(C1)C2` [Example 34, 1-(3-(Imidazo[4,5-d]pyrrolo[2,3-b]pyridin-1(6H)-yl)bicyclo[1.1.1]pentan-1-yl)-3-propylurea], the IC50 against JAK2 came out at 199 nM; against JAK1, 25.4 nM.
Turning to `O=C(CCC(F)(F)F)NC12CC(n3cnc4cnc5[nH]ccc5c43)(C1)C2` [Example 18, 4,4,4-Trifluoro-N-(3-(imidazo[4,5-d]pyrrolo[2,3-b]pyridin-1(6H)-yl)bicyclo[1.1.1]pentan-1-yl)butanamide], the IC50 at JAK2 is 167 nM; on JAK1, 18.7 nM. Moreover, the GI50 with BaF3-TEL-JAK2 was found to be 291 nM; in the assay with BaF3-TEL-JAK1, 120 nM.
Turning to `N#CC1CN(S(=O)(=O)C[C@H]2C[C@@H](n3cnc4cnc5[nH]ccc5c43)C2)C1` [Example 45, 1-(((Cis-3-(imidazo[4,5-d]pyrrolo[2,3-b]pyridin-1(6H)-yl)cyclobutyl)methyl)sulfonyl) azetidine-3-carbonitrile], the IC50 at JAK2 is 170 nM; against JAK1, 15.7 nM.
Take `O=S(=O)(CC1CC(F)(F)C1)NC12CC(n3cnc4cnc5[nH]ccc5c43)(C1)C2` [Example 46, 1-(3,3-Difluorocyclobutyl)-N-(3-(imidazo[4,5-d]pyrrolo[2,3-b]pyridin-1(6H)-yl)bicyclo[1.1.1]pentan-1-yl)methanesulfonamide]: the half-maximal inhibitory concentration (IC50) against TYK2 came to 108 nM; on JAK2, 78.3 nM; at JAK1, 2.2 nM. The GI50 in the assay on BaF3-TEL-JAK2 amounted to 133 nM; with BaF3-TEL-JAK1, 14.2 nM.
For `O=S(=O)(NC12CC(n3cnc4cnc5[nH]ccc5c43)(C1)C2)N1CC(F)(F)C1` [Example 23, 3,3-difluoro-N-(3-(imidazo[4,5-d]pyrrolo[2,3-b]pyridin-1(6H)-yl)bicyclo[1.1.1]pentan-1-yl)azetidine-1-sulfonamide], in that order: 33.5 nM, 50.8 nM, 3.4 nM, 148 nM and 41.6 nM.
For `CC(C)(C#N)CNC(=O)NC12CC(n3cnc4cnc5[nH]ccc5c43)(C1)C2` [Example 40, 1-(2-Cyano-2-methylpropyl)-3-(3-(imidazo[4,5-d]pyrrolo[2,3-b]pyridin-1(6H)-yl)bicyclo[1.1.1]pentan-1-yl)urea], the IC50 on JAK2 worked out at 355 nM; at JAK1 it was 49.4 nM.
For `N#CC1CCN(C(=O)NC23CC(n4cnc5cnc6[nH]ccc6c54)(C2)C3)C1` (centres unmarked) [Example 39, 3-Cyano-N-(3-(imidazo[4,5-d]pyrrolo[2,3-b]pyridin-1(6H)-yl)bicyclo[1.1.1]pentan-1-yl)pyrrolidine-1-carboxamide], in that order: 526 nM and 68.7 nM.
For `O=C(NC12CC(n3cnc4cnc5[nH]ccc5c43)(C1)C2)N1CC(F)(F)C1` [Example 37, 3,3-Difluoro-N-(3-(imidazo[4,5-d]pyrrolo[2,3-b]pyridin-1(6H)-yl)bicyclo[1.1.1]pentan-1-yl)azetidine-1-carboxamide], in that order: 678 nM and 101 nM.
For `CC(C)CC(=O)NC12CC(n3cnc4cnc5[nH]ccc5c43)(C1)C2` [Example 8, N-(3-(Imidazo[4,5-d]pyrrolo[2,3-b]pyridin-1(6H)-yl)bicyclo[1.1.1]pentan-1-yl)-3-methylbutanamide], in that order: 328 nM and 47.4 nM.
For `COCCS(=O)(=O)NC12CC(n3cnc4cnc5[nH]ccc5c43)(C1)C2` [Example 6, N-(3-(imidazo[4,5-d]pyrrolo[2,3-b]pyridin-1(6H)-yl)bicyclo[1.1.1]pentan-1-yl)-2-methoxyethanesulfonamide], the values for the IC50 at TYK2, against JAK2 and against JAK1 were 1050 nM, 597 nM and 24.4 nM, respectively.
As for `CC(C)COC(=O)NC12CC(n3cnc4cnc5[nH]ccc5c43)(C1)C2` [Example 10, Isobutyl (3-(imidazo[4,5-d]pyrrolo[2,3-b]pyridin-1(6H)-yl)bicyclo[1.1.1]pentan-1-yl)carbamate], the IC50 was found to be 868 nM against JAK2 and 165 nM on JAK1.

These data come from patent US11851431B2, “Tricyclic Janus kinase 1 inhibitors, and compositions and methods thereof” (LYNK PHARMACEUTICALS CO. LTD., priority 2018, dated 2023).
